This note sets out measurements from paper PMC6792352, “Limited Chemical Structural Diversity Found to Modulate Thyroid Hormone Receptor in the Tox21 Chemical Library” (Environmental Health Perspectives, 2019).

SMILES strings stand for the structures. Counter-ions that a name gives are not always drawn. Like-named read-outs stand apart in the source and are kept apart here.

The data set deals with GH3-TRE-Luc cell line. Particulars: read-out: AC50 (uM) modified / 1000, viability, 1 nM T3 present, 24 h.

`c1ccc(C(O[C@@H]2CCCN(CCc3ccc4c(c3)OCO4)C2)c2ccccc2)cc1` [Zamifenacin]: the CC50 (Tox21_110001=Tox21_300210) came to 40 µM.

As to `Oc1c(Cl)cc(Cl)cc1Sc1cc(Cl)cc(Cl)c1O` [Bithionol], the CC50 by setting is: (Tox21_110001=Tox21_110832) 12.4 µM; (Tox21_110001=Tox21_200384) 6.76 µM; (Tox21_110001=Tox21_302919) 20.3 µM.

Regarding `CC(C)(C)NC(=O)[C@@H]1C[C@@H]2CCCC[C@@H]2CN1C[C@@H](O)[C@H](Cc1ccccc1)NC(=O)[C@H](CC(N)=O)NC(=O)c1ccc2ccccc2n1` [Saquinavir mesylate], the CC50 by setting is: (Tox21_110001=Tox21_111137) 9.01 µM; (Tox21_110001=Tox21_202533) 27.8 µM.

As for `CCCCCCCCCCCCn1cc[n+](C)c1` [1-Dodecyl-3-methylimidazolium bromide], the CC50 (Tox21_110001=Tox21_202628) turned out to be 80.1 µM.

On to `CCCCCCCCCCCCCCCC[N+](C)(C)C` [Hexadecyltrimethylammonium bromide], for which the CC50 runs as follows: (Tox21_110001=Tox21_112096) 9.07 µM; (Tox21_110001=Tox21_300853) 11.7 µM.

As to `Cc1ccc(-c2cc(C(F)(F)F)nn2-c2ccc(S(N)(=O)=O)cc2)cc1` [Celecoxib], the CC50 by setting is: (Tox21_110001=Tox21_111135) 21.2 µM; (Tox21_110001=Tox21_201964) 46.6 µM; (Tox21_110001=Tox21_300599) 62.4 µM.

Consider `CN(Cc1ccc(C(C)(C)C)cc1)Cc1cccc2ccccc12` [Butenafine hydrochloride], for which, for the setting “Tox21_110001=Tox21_112918”, the CC50 was 28.6 µM.

For `[H]/N=C(\N/C(=N/[H])NCCCCCCNC(=N)NC(=N)Nc1ccc(Cl)cc1)Nc1ccc(Cl)cc1` [Chlorhexidine diacetate], where the note is “Tox21_110001=Tox21_302363”, the CC50 was determined as 5.83 µM.

As to `Oc1ccc(O)cc1` [Hydroquinone], the CC50 turned out to be 16 µM (Tox21_110001=Tox21_110169), 32.2 µM (Tox21_110001=Tox21_202345) and 21.9 µM (Tox21_110001=Tox21_300015).

For the compound `CN(C)CCC=C1c2ccccc2CCc2ccccc21` [Amitriptyline hydrochloride], the CC50 reads like this: (Tox21_110001=Tox21_113122) 18.1 µM; (Tox21_110001=Tox21_201278) 8.86 µM; (Tox21_110001=Tox21_303612) 13.7 µM.

As to `CCc1nn(CCCN2CCN(c3cccc(Cl)c3)CC2)c(=O)n1CCOc1ccccc1` [Nefazodone hydrochloride], the CC50 is 9.43 µM (Tox21_110001=Tox21_111735) and 23.6 µM (Tox21_110001=Tox21_113574).

Regarding `CC[C@H](c1ccc(O)cc1)[C@@H](CC)c1ccc(O)cc1` [meso-Hexestrol], the CC50 runs as follows: (Tox21_110001=Tox21_110377) 13.9 µM; (Tox21_110001=Tox21_301456) 47 µM.

As to `CCCCC(CC)COC(=O)CC(C(=O)OCC(CC)CCCC)S(=O)(=O)O` (stereo not drawn) [Docusate sodium], the CC50 reads like this: (Tox21_110001=Tox21_112087) 34.4 µM; (Tox21_110001=Tox21_113469) 18.8 µM; (Tox21_110001=Tox21_201342) 64.9 µM; (Tox21_110001=Tox21_300496) 57.2 µM.

For the compound `CCCCCCCCCCn1cc[n+](C)c1` [1-Decyl-3-methylimidazolium bromide], the CC50 (Tox21_110001=Tox21_202622) stood at 18 µM.

`CNCCC(Oc1ccc(C(F)(F)F)cc1)c1ccccc1` (stereo not drawn) [Fluoxetine]: under “Tox21_110001=Tox21_110144”, the CC50 is 8.3 µM.

For the compound `CC(C)(C)NC(=O)[C@@H]1CN(Cc2cccnc2)CCN1C[C@@H](O)C[C@@H](Cc1ccccc1)C(=O)N[C@H]1c2ccccc2C[C@H]1O` [Indinavir sulfate], the CC50 (Tox21_110001=Tox21_111687) worked out at 32 µM.

As for `COc1ccc(N)cc1N` [2,4-Diaminoanisole sulfate hydrate], where the note is “Tox21_110001=Tox21_302700”, the CC50 was 48.9 µM.

Take `O=C(CCl)c1ccc(Cl)cc1Cl` [2,2',4'-Trichloroacetophenone]: the CC50 by setting is: (Tox21_110001=Tox21_113246) 2.14 µM; (Tox21_110001=Tox21_113461) 4.54 µM.

On to `COC(=O)[C@H]1[C@H]2C[C@@H]3c4[nH]c5cc(OC)ccc5c4CCN3C[C@H]2C[C@@H](OC(=O)c2cc(OC)c(OC)c(OC)c2)[C@@H]1OC` [Reserpine], for which the CC50 runs as follows: (Tox21_110001=Tox21_111107) 12.5 µM; (Tox21_110001=Tox21_202395) 22.9 µM; (Tox21_110001=Tox21_300537) 75.5 µM.

For the compound `CN(C)CCCN1c2ccccc2CCc2ccccc21` [Imipramine], the CC50 (Tox21_110001=Tox21_110174) stood at 9.04 µM and the CC50 (Tox21_110001=Tox21_301417) was found to be 19.5 µM.

As to `CCCCCCCC[n+]1ccn(C)c1` [1-Methyl-3-octylimidazolium bromide], the CC50 (Tox21_110001=Tox21_202653) was found to be 31.6 µM.

As to `CCCCCCCCCCCCCC[P+](CCCCCC)(CCCCCC)CCCCCC` [Trihexyltetradecylphosphonium dicyanamide], the CC50 (Tox21_110001=Tox21_202613) amounted to 2.76 µM.

As for `Cn1c(=O)c2c(ncn2C)n(C)c1=O` [Caffeine], the CC50 (Tox21_110001=Tox21_201685) stood at 41.2 µM.
